How the values were obtained:
PC3 cells [1] = test: Intracellular lactate determination; format: cell-based, Human; settings: 6 h
Text: Cytosolic metabolism of glucose to pyruvate occurs before its entry into mitochondria for oxidative phosphorylation. However, if not metabolized through oxidative phosphorylation as found in cancer, pyruvate gets converted by lactate dehydrogenase through glycolysis to lactate. Glycolysis in the absence of oxidative phosphorylation in cancer causes rise in lactate concentration. To test the ability of MITO-DCA to switch glucose metabolism from glycolysis to oxidative phosphorylation in cancer cells, intracellular lactate levels in glycolytic PC3 cells were measured and compared the value with those observed in less glycolytic LNCaP and normal MSC cells (FIG. 5A). To understand the importance of mitochondria targeting ligand and to explore the importance of a Tris platform to increase number of DCA molecule per targeting ligand, the parent drug Na-DCA and TPP-DCA were used as controls. Treatment of PC3 cells with 50 μM of MITO-DCA for 6 h reduced the intracellular lactate levels by 58±5%. […] Pronounced lactate concentration differences were observed between […] glycolytic PC3 and healthy MSC cells (FIG. 5A). […] None of the DCA compounds has any effect on the lactate levels in MSC cells (FIG. 5A).
PC3, LNCaP, and MSC cells were seeded at a density of 1×10^6 cells/mL on each well of a 12 well plate and allowed to grow overnight at 37° C. under 5% CO2. Cells were treated with 150 μM Na-DCA, 150 μM TPP-DCA, and 50 μM MITO-DCA for 6 h at 37° C. After 6 h, the media was removed and the cells were homogenized. The lysate was added to the enzyme and substrate working reagent mixture and incubated for 30 min. Lactate concentration was measured using Bio-Tek Synergy HT microplate reader at 450 nm and comparing to a standard curve.

PC3 cells [2] = test: Cytokine production by treated PC3 cells (ELISA); format: cell-based, Human; settings: 50 μM, 24 h
Text: Cancer cells recruit several pathways to evade elimination by the immune system (Kim et al., Immunology 121:1-14, 2007). Several mechanisms by which tumor cells escape immunity include upregulation of inhibitory molecules, production of immunosuppressive cytokines, and downregulation of costimulatory molecules (Rabinovich et al., Annu. Rev. Immunol. 25:267-296, 2007). Dendritic cells (DCs), the major players for the initiation of a specific anti-tumor T-cell response, are potential target to tumor-mediated immunosuppression. (Gabrilovich et al., Nat. Med. 2:1096-1103, 1996; Radmayr et al., Int. J. Cancer 63:627-632, 1995; Orsini et al., Cancer Res. 63:4497-4506, 2003.) Lactic acid secretion in highly proliferative glycolytic tumor has the ability to induce alteration in antigen phenotype and functional activity of DCs, which contributes to the suppression of local immunity (Gottfried et al. 2006). Tumor derived lactic acid inhibit the differentiation of monocytes to DCs, impair DC activation and antigen expression and suppress the proliferation, cytokine production and cytotoxic activity of T cells (Fischer et al., Blood 109:3812-3819, 2007). After observing significant and very selective reduction in lactate levels in PCa cells by MITO-DCA, the impact of the reduced lactate producing PC3 cell supernatants on DCs was investigated. […]

[3] = system: mouse bone marrow derived dendritic cells (BMDCs); test: Cytokine secretion of BMDCs activated with supernatants of treated PC3 cells (ELISA); format: cell-based; settings: for IL-12 secretion from BMDCs: BMDCs 24 h
Text: Cancer cells recruit several pathways to evade elimination by the immune system (Kim et al., Immunology 121:1-14, 2007). Several mechanisms by which tumor cells escape immunity include upregulation of inhibitory molecules, production of immunosuppressive cytokines, and downregulation of costimulatory molecules (Rabinovich et al., Annu. Rev. Immunol. 25:267-296, 2007). Dendritic cells (DCs), the major players for the initiation of a specific anti-tumor T-cell response, are potential target to tumor-mediated immunosuppression. (Gabrilovich et al., Nat. Med. 2:1096-1103, 1996; Radmayr et al., Int. J. Cancer 63:627-632, 1995; Orsini et al., Cancer Res. 63:4497-4506, 2003.) Lactic acid secretion in highly proliferative glycolytic tumor has the ability to induce alteration in antigen phenotype and functional activity of DCs, which contributes to the suppression of local immunity (Gottfried et al. 2006). Tumor derived lactic acid inhibit the differentiation of monocytes to DCs, impair DC activation and antigen expression and suppress the proliferation, cytokine production and cytotoxic activity of T cells (Fischer et al., Blood 109:3812-3819, 2007). After observing significant and very selective reduction in lactate levels in PCa cells by MITO-DCA, the impact of the reduced lactate producing PC3 cell supernatants on DCs was investigated. Cancer cell supernatants were generated by treating PC3 cells with MITO-DCA (50 μM), Na-DCA (150 μM), and TPP-DCA (150 μM) for 24 h. First, investigated was the immune responses from the PC3 supernatants upon treatment with different DCA compounds by determining pro-inflammatory and anti-inflammatory cytokines interleukin (IL)-2, IL-4, IL-6, IL-10, IL-12, tumor necrosis factor (TNF)-α, and interferon-gamma (IFN-γ) using enzyme-linked immunosorbent assay (ELISA) (FIG. 6A) (Marrache et al., Integr. Biol. 5:215-223, 2013). […] The levels of all these three cytokines were higher for MITO-DCA treated cells compared to those, which were treated with TPP-DCA or Na-DCA. When DCs are activated appropriately, they take up tumor antigens and apoptotic bodies, migrate to the T-cell-rich area of the lymph nodes, initiate a series of actions for the selection of antigen-specific T cells, and the release of the DC cytokines such as IFN-γ and IL-12. The PC3 supernatants containing the tumor antigens were added to mouse bone marrow derived dendritic cells (BMDCs) and incubated at 37° C. (Marrache et al., 2013). […]
BMDCs were isolated from 6-8 weeks old C57BL/6 mice. […] The cells were counted, resuspended and transferred to petri dishes at the final concentration of 1.5×10^6 cells/mL. […] DC purity was tested by incubating BMDCs with LPS (100 ng/mL) and measured the surface expression of CD11c. […]

[4] = supernatant of PC3 cells treated with 50 μM for 24 h

Row | SMILES | Reduction of intracellular lactate levels (PC3 cells [1]; 50 μM) | Levels of IL-6, IL-10 and TNF-α from PC3 cells, compared with TPP-DCA or Na-DCA (PC3 cells [2]) | IL-10 production from BMDCs [3, 4] | TNF-α secretion from BMDCs [3, 4] | IL-12 secretion from BMDCs [3, 4] | Reduction of intracellular lactate levels (PC3 cells [1]; 150 μM) | IL-12 secretion from BMDCs ([3]; supernatant of PC3 cells treated with 150 μM for 24 h)
1 | O=C(CCCCC[P+](c1ccccc1)(c1ccccc1)c1ccccc1)NC(COC(=O)C(Cl)Cl)(COC(=O)C(Cl)Cl)COC(=O)C(Cl)Cl.[Br-] [MITO-DCA] | 58±5% | higher | reducing IL-10 production | highest level | significant increased secretion of IL-12 | – | –
2 | O=C(OCCC[P+](c1ccccc1)(c1ccccc1)c1ccccc1)C(Cl)Cl.[Br-] [TPP-DCA] | – | – | – | – | – | 30±2% | lesser compared to MITO-DCA

From patent US10004809B2, “Precise delivery of therapeutic agents to cell mitochondria for anti-cancer therapy” (UNIVERSITY OF GEORGIA RESEARCH FOUNDATION, INC., priority 2013, dated 2018)
